Data on 1 compound can be found in publication PMC9743598, “OR2AT4 and OR1A2 counterregulate molecular pathophysiological processes of steroid-resistant inflammatory lung diseases in human alveolar macrophages” (Molecular Medicine, 2022).

Molecules are shown by their SMILES.

For orientation: EC50 means the concentration at which the effect is half-maximal.

For this assay, the target named is T1, OR2AT4 (Homo sapiens, UniProt A6NND4).
T1 construct: endogenous full-length receptor in primary human alveolar macrophages from bronchoalveolar lavage; estimated 34 kDa, blot signal about 40 kDa
T1 sequence (A6NND4 1-320): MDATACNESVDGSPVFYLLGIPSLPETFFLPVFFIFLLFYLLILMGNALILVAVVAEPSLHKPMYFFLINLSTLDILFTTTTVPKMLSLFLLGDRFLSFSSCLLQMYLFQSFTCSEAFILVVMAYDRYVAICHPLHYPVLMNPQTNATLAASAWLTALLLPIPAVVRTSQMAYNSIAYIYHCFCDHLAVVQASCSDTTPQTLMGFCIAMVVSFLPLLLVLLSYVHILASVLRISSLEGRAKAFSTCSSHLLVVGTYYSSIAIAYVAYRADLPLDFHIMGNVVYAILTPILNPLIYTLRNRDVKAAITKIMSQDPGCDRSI
The experiment in a line: Fura-2 single-cell calcium imaging, primary human alveolar macrophages. The format is cell-based. To be noted: agonist; endogenous receptor in native cells; Ringer solution.

Turning to `CC1=CCC(CCC(C)C(C)O)C1(C)C` (stereo not shown) [Sandalore], the EC50 stood at 190 µM.
